Assay results reported in US20220096529A1, “2-HYDROXYPROPYL-BETA-CYCLODEXTRIN (HPBETACD) FOR USE IN THE TREATMENT OF BREAST CANCER” (UNIVERSITY OF THE WITWATERSRAND, JOHANNESBURG, priority 2019, published 2022).
“And” between values parts separate entries of the source, which are not always exact repeats. Equal values may be shown once. “Also recorded” adds a separate entry of the source. Read-outs that look alike come from different tables or passages of the source.

Tests used:
SREBP-1 in MRC-5 cells = test: Western blotting for SREBP-1; type: cell-based, human; details: MRC-5, 10 mM HPβCD, 24 hrs
Protocol: (§1) In order to delve in to more detailed mechanisms of cholesterol depletion a western blotting analysis was conducted for SREBP-1 protein, which is a known transcription factor involved in cholesterol homeostasis. Lysates from MCF7, MDA-MB-231 and MRC-5 cells were used. 10 mM HPβCD was treated for 24 hrs. SREBPs are key elements responsible for the gene expression of vital enzymes involved in fatty acid synthesis which includes SREBP 1 and SREBP 2. […] In order to investigate this characteristic feature of SREBPs a western blot analysis was conducted to see if HPβCD treatment does alter SREBP levels.

[1] = system: SREBP-1 in MDA-MB-231 cells; test: Western blotting for SREBP-1; type: cell-based, human; details: MDA-MB-231, 10 mM HPβCD, 24 hrs
Protocol: as §1

SREBP-1 in MCF7 cells = test: Western blotting for SREBP-1; type: cell-based, human; details: MCF7, 10 mM HPβCD, 24 hrs
Protocol: as §1

MDA-MB-231 tumours [2] = test: Hematoxylin and eosin staining of xenograft tumours; type: in vivo, mice
Source text: Hematoxylin and cosin staining of mice was undertaken in untreated, intermediate and late stage MDA-MB-231 mice as is shown in FIG. 36.
The individual cells are markedly pleomorphic and have raised nuclear to cytoplasmic ratios. The neoplastic cells have irregular nuclear borders and the cells have vesicular chromatic with one to multiple prominent nucleoli. Brisk mitotic activity is evident. Areas of perineural and lymphovascular invasion are however, not documented.

MDA-MB-231 tumours [3] = test: Filipin cholesterol staining of tumour tissue from mice; type: in vivo; details: intermediate and late stage tumours
Source text: 4 from untreated, 3 from intermediate and 4 from late stage.

MDA-MB-231 cells [4] = test: ROS assay; type: cell-based, human
Protocol: (§2) To further validate the occurrence of apoptosis and to investigate the exact mechanisms if apoptosis, a ROS assay was conducted to capture the production of ROS. […] In order to be in solidarity with this fact, a ROS assay was performed in three cell lines: MCF7, MDA-MB-231 & MRC-5. Like before, HPβCD and the positive (10 mM H2O2) were treated for 24 hrs. The right hand section in each plot represents the production of ROS.

MRC-5 cells [5] = test: ROS assay; type: cell-based, human
Protocol: as §2

MCF7 cells [6] = test: ROS assay; type: cell-based, human
Protocol: as §2

MDA-MB-231 cells [7] = test: RT2 Profiler PCR Array Human Breast cancer; type: cell-based
Source text: (§3) PCR (polymerase chain reaction) arrays were run to identify gene expression changes in cancer cells after treatment with HPβCD. The differentially expressed genes along with their significance for cancer, some genes were selected for further drug-protein interaction studies.

MCF7 cells [8] = test: RT2 Profiler PCR Array Human Breast cancer; type: cell-based
Source text: as §3

HEK-293 cells = type: cell-based, human
Protocol: (§4) Cells were cultured in appropriate medium supplemented with 10% FCS, penicillin (100 U/ml), and streptomycin (100 μg/ml) (Gibco) at 5% CO2 in a 37° C. incubator.
(§5) Four different cell lines were used MCF7 (ER+). MDA-MB-231 (ER−), MRC-5 (Lung Fibroblasts) and HEK-293 (Embryonic kidney). MRC-5 and/or HEK-293 were used as control cell lines depending on availability.
(§6) In order to determine whether HPβCD has the ability to induce cancer cell death a primary screening using an MTT assay was performed. Three different time points 24 hrs.

MRC-5 cells [9] = type: cell-based, human; details: for concentration for 50% growth inhibition in normal cells compared to cancerous cells: MRC-5 and HEK-293 vs cancerous cells
Protocol: as §4, §5, §6

[10] = late stage treated mice, one value per case

In the case of 2-hydroxypropyl-β-cyclodextrin [HPβCD], the “SREBP-1 activity compared to untreated lysate” value (SREBP-1 in MRC-5 cells) is reported as “remained equal”, the “SREBP-1 protein level compared to untreated lysate” value [1] is reported as “about two and a half times less activity of SREBP-1” and the “SREBP-1 protein level compared to untreated lysate” value (SREBP-1 in MCF7 cells) is reported as “about five times less activity of SREBP-1”. The “necrosis, share of the total tumour examined” value (MDA-MB-231 tumours [2]; intermediate group) was 6-10%, the MITOSES (MDA-MB-231 tumours [2]; intermediate stage treated mice, one value per case) was 70 Atypical and 59 Atypical and 67 Atypical and the NECROSIS (MDA-MB-231 tumours [2]; intermediate stage treated mice, one value per case (INTM 13, 31, 32)) was “Focal necrosis; also recorded: Occasional; also recorded: Multiple pockets”. The “apoptotic cells compared to the intermediate group” value (MDA-MB-231 tumours [2]; late group) was 2.9 times, the “increase in number of apoptotic cells compared to the untreated group” value (MDA-MB-231 tumours [2]; late group) was roughly 1.7 fold and the “mitotic activity lower than in the other two groups” value (MDA-MB-231 tumours [2]; late group) was “approximately 1.1 times”. For the same substance, the “increase in necrosis compared to the untreated group” value (MDA-MB-231 tumours [2]; late group, case Late 12) was roughly 4 fold, the “necrosis, share of the tissue examined” value (MDA-MB-231 tumours [2]; late group, case Late 12) was “up to 20%” and the “APOPTOSIS/ 10 HPF” value (MDA-MB-231 tumours [2]; [10]) was 21 and 30 and 39 and 32 and 27. The “EPID/ MUSCLE INV.” value (MDA-MB-231 tumours [2]; [10]) was “No muscle present; also recorded: No muscle or epidermis; also recorded: Muscle invasion”, the MITOSES (MDA-MB-231 tumours [2]; [10]) was 60 and 65 and 57 and 59 and 50 and the NECROSIS (MDA-MB-231 tumours [2]; late stage treated mice, one value per case (LATE 8 (1), 8 (2), 11, 12, 14)) was “Necrosis seen”. For the same substance, the “cholesterol (Filipin staining) in tumours compared to untreated” value (MDA-MB-231 tumours [3]) was “decreased cholesterol”, the “ROS production compared to untreated” value (MDA-MB-231 cells [4]; MDA-MB-231, 10 mM HPβCD) was “about 4 fold” and the ROS generation (MDA-MB-231 cells [4]; MDA-MB-231, 10 mM, 24 hrs) was 13.7%. The “ROS production compared to untreated” value (MRC-5 cells [5]; MRC-5, 10 mM HPβCD) was roughly 4 folds, the ROS generation (MRC-5 cells [5]; MRC-5, 10 mM, 24 hrs) was 10.8% and the “ROS production compared to untreated” value (MCF7 cells [6]; MCF7, 10 mM HPβCD) was “about 2.5 fold”. For the same substance, the ROS generation (MCF7 cells [6]; MCF7, 10 mM, 24 hrs) was 17.9%, the ADAM23 gene expression (MDA-MB-231 cells [7]) was “upregulated” and the Akt1 gene expression (MDA-MB-231 cells [7]) was “upregulated”. For the same substance, the CTSD gene expression (MDA-MB-231 cells [7]) was “upregulated”, the GATA3 gene expression (MDA-MB-231 cells [7]) was “downregulated” and the SFRP1 gene expression (MDA-MB-231 cells [7]) was “upregulated”. For the same substance, the ADAM23 gene expression (MCF7 cells [8]) was “downregulated by many folds”, the CTSD gene expression (MCF7 cells [8]) was “significantly downregulated” and the IC50 (HEK-293 cells; HEK-293, 24 hrs) was 22.8 mM. The IC50 (HEK-293 cells; HEK-293, 48 hrs) was 26.5 mM, the IC50 (HEK-293 cells; HEK-293, 72 hrs) was 50.3 mM and the growth inhibition (HEK-293 cells; HEK-293, till 10 mM HPβCD, 24 hrs and 48 hrs) was “absolutely zero growth inhibition”. For the same substance, the IC50 (MRC-5 cells [9]; MRC-5, 24 hrs) was 20.7 mM, the IC50 (MRC-5 cells [9]; MRC-5, 48 hrs) was 19.9 mM and the IC50 (MRC-5 cells [9]; MRC-5, 72 hrs) was 41.7 mM. The growth inhibition (MRC-5 cells [9]; MRC-5, till 10 mM HPβCD, 24 hrs and 48 hrs) was “absolutely zero growth inhibition”, the “concentration for 50% growth inhibition in normal cells compared to cancerous cells” value (MRC-5 cells [9]; 24 hrs) was “almost double” and the “concentration for 50% growth inhibition in normal cells compared to cancerous cells” value (MRC-5 cells [9]; 72 hrs) was “almost five times”.
